{"source": "patent US20090068290A1", "about": "“BIFEPRUNOX DOSES FOR TREATING SCHIZOPHRENIA” (priority 2006, published 2009)", "key": {"[1]": {"test_system": "adult subjects with schizophrenia", "assay": "CGI Improvement score, Clinical Study One", "assay_type": "in vivo, human", "set-up": "Actual Value of CGI Improvement Score, Median / CGI Improvement Score, Trt Effect: scale not given here", "settings": "20 mg; Week 4; LOCF", "protocol": "There were five treatment groups in this study. […] Study medication was administered once daily. After Baseline measurements were performed, the titration phase was begun. Bifeprunox treated subjects were titrated up to 5 mg, 10 mg or 20 mg according to a standardized titration schedule (Day 1: 0.125 mg, Day 2: 0.25 mg, Day 3: 0.5 mg, Day 4: 1.0 mg, Day 5: 2.0 mg, Day 6: 5.0 mg, Day 7: 10.0 mg, Day 8: 20 mg). When the assigned dose was reached, subjects were maintained at that dose for the remainder of the six-week treatment period.\nThe change in the Positive and Negative Symptom Scale (PANSS) total score, from baseline to endpoint, was the primary outcome measure. Secondary efficacy measures included: PANSS positive, PANSS negative, PANSS general psychopathology (GPP) score, PANSS-derived Brief Psychiatric Rating Scale (BPRS) score, Clinical Global Impressions-Severity of Illness (CGI-S), CGI-Improvement (CGI-I) scores, and responder rates. Safety and tolerability evaluations included extrapyramidal symptoms (EPS), weight gain, lipid profile, and serum prolactin."}, "[2]": {"test_system": "adult subjects with schizophrenia", "assay": "PANSS positive symptom subscale score, Clinical Study Two", "assay_type": "in vivo, human", "settings": "LOCF, ITT; for PANSS Positive Symptom Subscale Score, Trt Effect (bifeprunox—placebo): ANCOVA", "protocol": "Rating scale assessments were performed weekly, except for week 5, to measure the change from baseline to endpoint of the PANSS total score. Other assessments included: PANSS positive symptom subscale score, PANSS negative symptom subscale score, PANSS general pschopathology subscale score, BPRS total score, BPRS psychosis score, the CGI-S score, the CGI-I score, responder rates based on the PANSS total score, and the Calgary Depression Scale for Schizophrenia (CDSS). […]\nSubjects who completed this study had the option to continue in the long-term. […] Risperidone-treated subjects were titrated from 2 mg to 6 mg daily over a three-day period and were subsequently maintained at 6 mg/day for the remainder of the treatment period. […] Blood samples were also obtained at Screening/Baseline, Week 3, and Week 6 for clinical laboratory assessments."}, "[3]": {"test_system": "adult subjects with schizophrenia", "assay": "CGI responder rate, Clinical Study Three", "assay_type": "in vivo, human", "settings": "LOCF; for CGI Responder No, % / CGI Responder Yes, %: Week 6/Endpoint", "text": "CLINICAL STUDY THREE: A CGI responder is defined as a subject who is categorized as “very much improved” or “much improved” on the CGI Improvement scale. […] No notable differences were observed between the placebo group and either of the two bifeprunox dose groups."}, "[4]": {"assay": "Body weight, Clinical Study Three", "from_the_text": "To assess the safety and tolerability of bifeprunox using physical examination, weight, waist circumference, vital signs (pulse rate and systolic/diastolic blood pressure [BP], and oral temperature), 12-lead electrocardiogram (ECG), clinical laboratory assessments (hematology, biochemistry including fasting insulin level, fasting glucose, fasting lipid profile, urinalysis, special laboratory assessments for prolactin, IGF-1, IGFBP-3, and thyroid function), need for anticholinergic treatment during double-blind treatment period, concomitant medication use, adverse event (AE) monitoring, and assessments of abnormal movement including the Simpson-Angus Scale (SAS), Barnes Akathisia Scale (BAS), and Abnormal Involuntary Movement Scale (AIMS)."}, "[5]": {"settings": "Bifeprunox 30 mg, Week 6/Endpoint"}, "[6]": {"settings": "Bifeprunox 40 mg, Week 6/Endpoint"}}, "data": [{"smiles": "O=c1[nH]c2cccc(N3CCN(Cc4cccc(-c5ccccc5)c4)CC3)c2o1", "note": "[Bifeprunox, 7-[4-([1,1′-biphenyl]-3-ylmethyl)-1-piperazinyl]-2(3H)-benzoxazolone]", "values": [{"measurement": "Actual Value of CGI Improvement Score, Mean (S.D.)", "setting": "[1]", "result": "3.35 (1.29)"}, {"measurement": "Actual Value of CGI Improvement Score, Median", "setting": "[1]", "result": 3.0}, {"measurement": "Change from Baseline in PANSS Positive Symptom Subscale Score, Mean (SD)", "setting": "[2]; Bifeprunox 30 mg, Week 1", "result": "−2.3 (3.6)"}, {"measurement": "Change from Baseline in PANSS Positive Symptom Subscale Score, Median", "setting": "[2]; Bifeprunox 30 mg, Week 1", "result": "−2"}, {"measurement": "Change from Baseline in PANSS Positive Symptom Subscale Score, Mean (SD)", "setting": "[2]; Bifeprunox 30 mg, Week 2", "result": "−4.1 (5.3)"}, {"measurement": "Change from Baseline in PANSS Positive Symptom Subscale Score, Median", "setting": "[2]; Bifeprunox 30 mg, Week 2", "result": "−3"}, {"measurement": "Change from Baseline in PANSS Positive Symptom Subscale Score, Mean (SD)", "setting": "[2]; Bifeprunox 30 mg, Week 3", "result": "−4.5 (5.6)"}, {"measurement": "Change from Baseline in PANSS Positive Symptom Subscale Score, Median", "setting": "[2]; Bifeprunox 30 mg, Week 3", "result": "−4"}, {"measurement": "Change from Baseline in PANSS Positive Symptom Subscale Score, Mean (SD)", "setting": "[2]; Bifeprunox 30 mg, Week 4", "result": "−4.4 (5.9)"}, {"measurement": "Change from Baseline in PANSS Positive Symptom Subscale Score, Median", "setting": "[2]; Bifeprunox 30 mg, Week 4", "result": "−4"}, {"measurement": "Change from Baseline in PANSS Positive Symptom Subscale Score, Mean (SD)", "setting": "[2]; [5]", "result": "−4.5 (6.6)"}, {"measurement": "Change from Baseline in PANSS Positive Symptom Subscale Score, Median", "setting": "[2]; [5]", "result": "−4"}, {"measurement": "PANSS Positive Symptom Subscale Score, Trt Effect (bifeprunox—placebo)", "setting": "[2]; [5]", "result": "−1.9"}, {"measurement": "Change from Baseline in PANSS Positive Symptom Subscale Score, Mean (SD)", "setting": "[2]; Bifeprunox 40 mg, Week 1", "result": "−2.8 (3.9)"}, {"measurement": "Change from Baseline in PANSS Positive Symptom Subscale Score, Median", "setting": "[2]; Bifeprunox 40 mg, Week 1", "result": "−2"}, {"measurement": "Change from Baseline in PANSS Positive Symptom Subscale Score, Mean (SD)", "setting": "[2]; Bifeprunox 40 mg, Week 2", "result": "−3.6 (5.7)"}, {"measurement": "Change from Baseline in PANSS Positive Symptom Subscale Score, Median", "setting": "[2]; Bifeprunox 40 mg, Week 2", "result": "−3"}, {"measurement": "Change from Baseline in PANSS Positive Symptom Subscale Score, Mean (SD)", "setting": "[2]; Bifeprunox 40 mg, Week 3", "result": "−4.1 (6.3)"}, {"measurement": "Change from Baseline in PANSS Positive Symptom Subscale Score, Median", "setting": "[2]; Bifeprunox 40 mg, Week 3", "result": "−4"}, {"measurement": "Change from Baseline in PANSS Positive Symptom Subscale Score, Mean (SD)", "setting": "[2]; Bifeprunox 40 mg, Week 4", "result": "−3.7 (6.6)"}, {"measurement": "Change from Baseline in PANSS Positive Symptom Subscale Score, Median", "setting": "[2]; Bifeprunox 40 mg, Week 4", "result": "−3"}, {"measurement": "Change from Baseline in PANSS Positive Symptom Subscale Score, Mean (SD)", "setting": "[2]; [6]", "result": "−4.2 (6.9)"}, {"measurement": "Change from Baseline in PANSS Positive Symptom Subscale Score, Median", "setting": "[2]; [6]", "result": "−4"}, {"measurement": "PANSS Positive Symptom Subscale Score, Trt Effect (bifeprunox—placebo)", "setting": "[2]; [6]", "result": "−1.7"}, {"measurement": "CGI Responder No, %", "setting": "[3]; 20 mg", "result": 62, "unit": "%"}, {"measurement": "CGI Responder Yes, %", "setting": "[3]; 20 mg", "result": 38, "unit": "%"}, {"measurement": "CGI Responder No, %", "setting": "[3]; 30 mg", "result": 66, "unit": "%"}, {"measurement": "CGI Responder Yes, %", "setting": "[3]; 30 mg", "result": 34, "unit": "%"}, {"measurement": "CGI-I responder rate (subjects much or very much improved) at Endpoint", "setting": "[3]; bifeprunox 20 mg", "result": 38, "unit": "%"}, {"measurement": "CGI-I responder rate (subjects much or very much improved) at Endpoint", "setting": "[3]; bifeprunox 30 mg", "result": 34, "unit": "%"}, {"measurement": "Weight, Baseline Mean of subjects with Endpoint change", "setting": "[4]; Bifeprunox 30 mg", "result": 179.7, "unit": "lbs"}, {"measurement": "Weight, Baseline Mean of subjects with Week 6 change", "setting": "[4]; Bifeprunox 30 mg", "result": 172.6, "unit": "lbs"}, {"measurement": "Weight, Baseline, Max", "setting": "[4]; Bifeprunox 30 mg", "result": 358, "unit": "lbs"}, {"measurement": "Weight, Baseline, Mean (SD)", "setting": "[4]; Bifeprunox 30 mg", "result": "179.1 (62.4) lbs"}, {"measurement": "Weight, Baseline, Median", "setting": "[4]; Bifeprunox 30 mg", "result": 171, "unit": "lbs"}, {"measurement": "Weight, Baseline, Min", "setting": "[4]; Bifeprunox 30 mg", "result": 77, "unit": "lbs"}, {"measurement": "Weight, Change from Baseline at Endpoint, Max", "setting": "[4]; Bifeprunox 30 mg", "result": 39, "unit": "lbs"}, {"measurement": "Weight, Change from Baseline at Endpoint, Mean (SD)", "setting": "[4]; Bifeprunox 30 mg", "result": "−1.1 (7.4) lbs"}, {"measurement": "Weight, Change from Baseline at Endpoint, Median", "setting": "[4]; Bifeprunox 30 mg", "result": 0, "unit": "lbs"}, {"measurement": "Weight, Change from Baseline at Endpoint, Min", "setting": "[4]; Bifeprunox 30 mg", "result": "−22", "unit": "lbs"}, {"measurement": "Weight, Change from Baseline at Week 6, Max", "setting": "[4]; Bifeprunox 30 mg", "result": 39, "unit": "lbs"}, {"measurement": "Weight, Change from Baseline at Week 6, Mean (SD)", "setting": "[4]; Bifeprunox 30 mg", "result": "−1.0 (8.9) lbs"}, {"measurement": "Weight, Change from Baseline at Week 6, Median", "setting": "[4]; Bifeprunox 30 mg", "result": "−2", "unit": "lbs"}, {"measurement": "Weight, Change from Baseline at Week 6, Min", "setting": "[4]; Bifeprunox 30 mg", "result": "−18", "unit": "lbs"}, {"measurement": "incidence of markedly abnormal (≧7%) decrease in body weight", "setting": "[4]; Bifeprunox 30 mg", "result": 5, "unit": "%"}, {"measurement": "incidence of markedly abnormal (≧7%) increase in body weight", "setting": "[4]; Bifeprunox 30 mg", "result": 5, "unit": "%"}, {"measurement": "mean weight change at Endpoint", "setting": "[4]; Bifeprunox 30 mg", "result": "−1.1", "unit": "lbs"}, {"measurement": "Weight, Baseline Mean of subjects with Endpoint change", "setting": "[4]; bifeprunox 20 mg", "result": 178.8, "unit": "lbs"}, {"measurement": "Weight, Baseline Mean of subjects with Week 6 change", "setting": "[4]; bifeprunox 20 mg", "result": 171.9, "unit": "lbs"}, {"measurement": "Weight, Baseline, Max", "setting": "[4]; bifeprunox 20 mg", "result": 393, "unit": "lbs"}, {"measurement": "Weight, Baseline, Mean (SD)", "setting": "[4]; bifeprunox 20 mg", "result": "180.6 (61.7) lbs"}, {"measurement": "Weight, Baseline, Median", "setting": "[4]; bifeprunox 20 mg", "result": 176, "unit": "lbs"}, {"measurement": "Weight, Baseline, Min", "setting": "[4]; bifeprunox 20 mg", "result": 77, "unit": "lbs"}, {"measurement": "Weight, Change from Baseline at Endpoint, Max", "setting": "[4]; bifeprunox 20 mg", "result": 26, "unit": "lbs"}, {"measurement": "Weight, Change from Baseline at Endpoint, Mean (SD)", "setting": "[4]; bifeprunox 20 mg", "result": "−2.3 (7.3) lbs"}, {"measurement": "Weight, Change from Baseline at Endpoint, Median", "setting": "[4]; bifeprunox 20 mg", "result": "−1", "unit": "lbs"}, {"measurement": "Weight, Change from Baseline at Endpoint, Min", "setting": "[4]; bifeprunox 20 mg", "result": "−34", "unit": "lbs"}, {"measurement": "Weight, Change from Baseline at Week 6, Max", "setting": "[4]; bifeprunox 20 mg", "result": 26, "unit": "lbs"}, {"measurement": "Weight, Change from Baseline at Week 6, Mean (SD)", "setting": "[4]; bifeprunox 20 mg", "result": "−3.3 (8.2) lbs"}, {"measurement": "Weight, Change from Baseline at Week 6, Median", "setting": "[4]; bifeprunox 20 mg", "result": "−1", "unit": "lbs"}, {"measurement": "Weight, Change from Baseline at Week 6, Min", "setting": "[4]; bifeprunox 20 mg", "result": "−34", "unit": "lbs"}, {"measurement": "incidence of markedly abnormal (≧7%) decrease in body weight", "setting": "[4]; bifeprunox 20 mg", "result": 6, "unit": "%"}, {"measurement": "incidence of markedly abnormal (≧7%) increase in body weight", "setting": "[4]; bifeprunox 20 mg", "result": 1, "unit": "%"}, {"measurement": "mean weight change at Endpoint", "setting": "[4]; bifeprunox 20 mg", "result": "−2.3", "unit": "lbs"}, {"measurement": "mean body weight (in words)", "setting": "[4]; bifeprunox 20, 30 mg, 6 weeks", "result": "Small decreases in mean body weight"}]}]}
